Assays:
Lck (h) = Lck (h) (Homo sapiens, UniProt P06239); assay: Lck Human  Kinase Enzymatic Radiometric Assay; format: biochemical; conditions: read-out: Lck IC50 nM Range*
Summary of the method: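 Substrate 33P-incorporation measured by scintillation counting after spotting on P30 filtermat and phosphoric acid washes. Human Lck reacted 40 min at RT in 50 mM Tris pH 7.5 with 10 mM MgAcetate, [gamma-33P]-ATP, 250 uM Cdc2 peptide, 0.1 mM EGTA and 0.1 mM Na3VO4.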

[1] = target: T1, Recombinant (1-346) HPK1 (h) (Homo sapiens, UniProt Q92918); assay: HPK1 Human STE Kinase Enzymatic Radiometric Assay; format: biochemical; conditions: read-out: HPK1 IC50 nM Range*
T1 construct: Recombinant (1-346) HPK1 (h) is incubated with 8 mM MOPS pH 7.0
T1 sequence (Q92918 1-346): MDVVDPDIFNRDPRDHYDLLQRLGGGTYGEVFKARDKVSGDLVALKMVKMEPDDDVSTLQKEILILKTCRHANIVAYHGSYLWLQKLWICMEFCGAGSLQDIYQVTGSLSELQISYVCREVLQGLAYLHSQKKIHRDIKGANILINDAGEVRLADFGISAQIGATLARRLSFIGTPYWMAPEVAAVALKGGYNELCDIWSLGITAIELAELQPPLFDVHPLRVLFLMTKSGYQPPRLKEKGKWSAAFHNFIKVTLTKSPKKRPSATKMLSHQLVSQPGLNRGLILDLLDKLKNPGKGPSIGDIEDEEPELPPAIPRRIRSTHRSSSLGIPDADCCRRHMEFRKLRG
Experimental: A stock solution of 10 mM of test compound is prepared in DMSO. The compound plate was prepared by 3-fold and 9-point serial dilutions. […] The reaction is initiated by The addition of the Mg/ATP mix. After incubation for 40 minutes at RT, the reaction is stopped by the addition of phosphoric acid to a concentration of 0.5%.

Sequence of Lck (h) (P06239 whole entry): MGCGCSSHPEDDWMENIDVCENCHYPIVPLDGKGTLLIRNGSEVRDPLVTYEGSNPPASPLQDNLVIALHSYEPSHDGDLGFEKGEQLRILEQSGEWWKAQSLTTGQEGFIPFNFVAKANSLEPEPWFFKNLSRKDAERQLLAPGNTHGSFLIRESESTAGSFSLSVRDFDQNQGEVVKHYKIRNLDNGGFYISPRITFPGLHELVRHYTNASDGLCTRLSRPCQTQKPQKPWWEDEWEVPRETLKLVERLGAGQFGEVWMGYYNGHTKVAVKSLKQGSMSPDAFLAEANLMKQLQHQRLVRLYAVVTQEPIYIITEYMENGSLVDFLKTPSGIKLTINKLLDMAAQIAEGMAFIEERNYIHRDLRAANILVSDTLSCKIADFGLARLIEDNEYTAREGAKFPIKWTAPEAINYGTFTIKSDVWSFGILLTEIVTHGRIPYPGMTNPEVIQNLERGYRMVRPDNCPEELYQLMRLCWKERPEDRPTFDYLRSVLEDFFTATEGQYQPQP

| IC50 (Lck (h)) [nM] | IC50 [1] [nM] | Compound |
| --- | --- | --- |
| > 1000 | 0.1 to 10 | Nc1nc(F)c(-c2ccc3c(c2)OCCCO3)cc1-c1cc2c(cc1F)C(=O)NCC2 [I-205, 6-(2-amino-5-(3,4-dihydro-2H-benzo[b][1,4]dioxepin-7-yl)-6-fluoropyridin-3-yl)-7-fluoro-3,4-dihydroisoquinolin-1(2H)-one] |
| > 1000 | 0.1 to 10 | CN1CCCN(S(=O)(=O)c2ccc(-c3cc(-c4ccc5c(c4)CCNC5=O)c(N)nc3F)cc2)CC1 [I-206, 6-(2-amino-6-fluoro-5-(4-((4-methyl-1,4-diazepan-1-yl)sulfonyl)phenyl)pyridin-3-yl)-3,4-dihydroisoquinolin-1(2H)-one] |
| > 1000 | 0.1 to 10 | CN1CCN(S(=O)(=O)c2ccc(-c3cc(-c4ccc5c(c4)CCNC5=O)c(N)nc3F)cc2)CC1 [I-207, 6-(2-amino-6-fluoro-5-(4-((4-methylpiperazin-1-yl)sulfonyl)phenyl)pyridin-3-yl)-3,4-dihydroisoquinolin-1(2H)-one] |
| > 1000 | 0.1 to 10 | CC(C)N1CCN(c2ccc(-c3cc(-c4cc5c(cc4F)C(=O)NCC5)c(N)nc3Cl)cc2)CC1 [I-209, 6-(2-amino-6-chloro-5-(4-(4-isopropylpiperazin-1-yl)phenyl)pyridin-3-yl)-7-fluoro-3,4-dihydroisoquinolin-1(2H)-one] |
| 101 to 1000 | 0.1 to 10 | Nc1nc(F)c(-c2ccc(N3CCN(CC4CC4)CC3)cc2)cc1-c1ccc2c(c1)CCNC2=O [I-210, 6-(2-amino-5-(4-(4-(cyclopropylmethyl)piperazin-1-yl)phenyl)-6-fluoropyridin-3-yl)-3,4-dihydroisoquinolin-1(2H)-one] |
| > 1000 | 0.1 to 10 | CCN1CCN(c2ccc(-c3cc(-c4cc5c(cc4F)C(=O)NCC5)c(N)nc3F)cc2)CC1 [I-211, 6-(2-amino-5-(4-(4-ethylpiperazin-1-yl)phenyl)-6-fluoropyridin-3-yl)-7-fluoro-3,4-dihydroisoquinolin-1(2H)-one] |
| > 1000 | 0.1 to 10 | COCCN1CCN(c2ccc(-c3cc(-c4cc5c(cc4F)C(=O)NCC5)c(N)nc3F)cc2)CC1 [I-212, 6-(2-amino-6-fluoro-5-(4-(4-(2-methoxyethyl)piperazin-1-yl)phenyl)pyridin-3-yl)-7-fluoro-3,4-dihydroisoquinolin-1(2H)-one] |
| > 1000 | 0.1 to 10 | Nc1nc(F)c(-c2ccc(N3CCN(CC4CC4)CC3)cc2)cc1-c1cc2c(cc1F)C(=O)NCC2 [I-213, 6-(2-amino-5-(4-(4-(cyclopropylmethyl)piperazin-1-yl)phenyl)-6-fluoropyridin-3-yl)-7-fluoro-3,4-dihydroisoquinolin-1(2H)-one] |
| > 1000 | 0.1 to 10 | COCCN1CCC2(CC1)OCc1cc(-c3cc(-c4ccc5c(c4)CCNC5=O)c(N)nc3F)ccc1O2 [I-214, 6-(2-amino-6-fluoro-5-(1′-(2-methoxyethyl)-4H-spiro[benzo[d][1,3]dioxine-2,4′-piperidin]-6-yl)pyridin-3-yl)-3,4-dihydroisoquinolin-1(2H)-one] |
| > 1000 | 0.1 to 10 | COCCN1CCC2(CC1)CC(=O)c1cc(-c3cc(-c4ccc5c(c4)CCNC5=O)c(N)nc3F)ccc1O2 [I-215, 6-(6-amino-2-fluoro-5-(1-oxo-1,2,3,4-tetrahydroisoquinolin-6-yl)pyridin-3-yl)-1′-(2-methoxyethyl)spiro[chromane-2,4′-piperidin]-4-one] |
| > 1000 | 0.1 to 10 | COCCN1CCC2(CCc3cc(-c4cc(-c5ccc6c(c5)CCNC6=O)c(N)nc4F)ccc3O2)CC1 [I-216, 6-(2-amino-6-fluoro-5-(1′-(2-methoxyethyl)spiro[chromane-2,4′-piperidin]-6-yl)pyridin-3-yl)-3,4-dihydroisoquinolin-1(2H)-one] |
| > 1000 | 0.1 to 10 | COCCN1CCC(Oc2ccc(-c3cc(-c4ccc5c(c4)CCNC5=O)c(N)nc3F)cc2C#N)CC1 [I-217, 5-(6-amino-2-fluoro-5-(1-oxo-1,2,3,4-tetrahydroisoquinolin-6-yl)pyridin-3-yl)-2-((1-(2-methoxyethyl)piperidin-4-yl)oxy)benzonitrile] |
| > 1000 | 0.1 to 10 | CC(C)N1CCC2(CC1)OCc1cc(-c3cc(-c4ccc5c(c4)CCNC5=O)c(N)nc3F)ccc1O2 [I-218, 6-(2-amino-6-fluoro-5-(1′-isopropyl-4H-spiro[benzo[d][1,3]dioxine-2,4′-piperidin]-6-yl)pyridin-3-yl)-3,4-dihydroisoquinolin-1(2H)-one] |
| > 1000 | 0.1 to 10 | Nc1nc(F)c(-c2ccc(N3CCNCC3)c(C(F)(F)F)c2)cc1-c1cc2c(cc1F)C(=O)NCC2 [I-219, 6-(2-amino-6-fluoro-5-(4-(piperazin-1-yl)-3-(trifluoromethyl)phenyl)pyridin-3-yl)-7-fluoro-3,4-dihydroisoquinolin-1(2H)-one] |
| > 1000 | 0.1 to 10 | COCC(=O)N1C[C@H]2C[C@@]2(c2ccc(-c3cc(-c4ccc5c(c4)CCNC5=O)c(N)nc3F)cc2)C1 [I-220, 6-(2-amino-6-fluoro-5-(4-((1R,5S)-3-(2-methoxyacetyl)-3-azabicyclo[3.1.0]hexan-1-yl)phenyl)pyridin-3-yl)-3,4-dihydroisoquinolin-1(2H)-one] |
| > 1000 | 11 to 100 | CC(=O)N1CCN(c2ccc(-c3cc(-c4cc5c(cc4F)C(=O)NCC5)c(N)nc3F)cn2)CC1 [I-221, 6-(6′-(4-acetylpiperazin-1-yl)-6-amino-2-fluoro-[3,3′-bipyridin]-5-yl)-7-fluoro-3,4-dihydroisoquinolin-1(2H)-one 2,2,2-trifluoroacetate] |
| > 1000 | 0.1 to 10 | CC(C)N1CCC2(CC1)CC(=O)c1cc(-c3cc(-c4ccc5c(c4)CCNC5=O)c(N)nc3F)ccc1O2 [I-222, 6-(6-amino-2-fluoro-5-(1-oxo-1,2,3,4-tetrahydroisoquinolin-6-yl)pyridin-3-yl)-1′-isopropylspiro[chromane-2,4′-piperidin]-4-one] |
| > 1000 | 0.1 to 10 | CC(C)N1CCC2(CCc3cc(-c4cc(-c5ccc6c(c5)CCNC6=O)c(N)nc4F)ccc3O2)CC1 [I-223, 6-(2-amino-6-fluoro-5-(1′-isopropylspiro[chromane-2,4′-piperidin]-6-yl)pyridin-3-yl)-3,4-dihydroisoquinolin-1(2H)-one] |
| > 1000 | 0.1 to 10 | CC(C)N1CCC(Oc2ccc(-c3cc(-c4ccc5c(c4)CCNC5=O)c(N)nc3F)cc2C#N)CC1 [I-224, 5-(6-amino-2-fluoro-5-(1-oxo-1,2,3,4-tetrahydroisoquinolin-6-yl)pyridin-3-yl)-2-((1-isopropylpiperidin-4-yl)oxy)benzonitrile] |
| > 1000 | 0.1 to 10 | CN(C)CC(=O)N1C[C@H]2C[C@@]2(c2ccc(-c3cc(-c4ccc5c(c4)CCNC5=O)c(N)nc3F)cc2)C1 [I-225, 6-(2-amino-5-(4-((1R,5S)-3-(dimethylglycyl)-3-azabicyclo[3.1.0]hexan-1-yl)phenyl)-6-fluoropyridin-3-yl)-3,4-dihydroisoquinolin-1(2H)-one] |
| > 1000 | 0.1 to 10 | CC(C)N1CCN(c2ccc(-c3cc(-c4cc5c(cc4F)C(=O)NCC5)c(N)nc3F)cn2)CC1 [I-226, 6-(6-amino-2-fluoro-6′-(4-isopropylpiperazin-1-yl)-[3,3′-bipyridin]-5-yl)-7-fluoro-3,4-dihydroisoquinolin-1(2H)-one] |
| > 1000 | 11 to 100 | Nc1cc2cc(-c3cc(-c4ccc5c(c4)CCNC5=O)c(N)nc3F)c(F)c(Cl)c2cn1 [I-227, 6-(2-amino-5-(3-amino-8-chloro-7-fluoroisoquinolin-6-yl)-6-fluoropyridin-3-yl)-3,4-dihydroisoquinolin-1(2H)-one] |
| > 1000 | 11 to 100 | CC(C)N1CCc2cc(-c3cc(-c4ccc5c(c4)CCNC5=O)c(N)nc3F)nn2CC1=O [I-228, 2-(6-amino-2-fluoro-5-(1-oxo-1,2,3,4-tetrahydroisoquinolin-6-yl)pyridin-3-yl)-6-isopropyl-5,6-dihydro-4H-pyrazolo[1,5-d][1,4]diazepin-7(8H)-one] |
| > 1000 | 11 to 100 | Nc1nc(F)c(-c2cc3n(n2)CC(=O)NCC3)cc1-c1ccc2c(c1)CCNC2=O [I-229, 2-(6-amino-2-fluoro-5-(1-oxo-1,2,3,4-tetrahydroisoquinolin-6-yl)pyridin-3-yl)-5,6-dihydro-4H-pyrazolo[1,5-d][1,4]diazepin-7(8H)-one] |

| Compound | IC50 (Lck (h)) [nM] | IC50 [1] [nM] |
| --- | --- | --- |
| COCCN1CCC(OC)(c2ccc(-c3cc(-c4ccc5c(c4)CCNC5=O)c(N)nc3F)cc2)CC1 [I-208, 6-(2-amino-6-fluoro-5-(4-(4-methoxy-1-(2-methoxyethyl)piperidin-4-yl)phenyl)pyridin-3-yl)-3,4-dihydroisoquinolin-1(2H)-one] | > 1000 | 0.1 to 10 |
| CN1CC=C(c2ccc(-c3cc(-c4ccc5c(c4)CCNC5=O)c(N)nc3Cl)cc2)CC1 [I-230, 6-(2-amino-6-chloro-5-(4-(1-methyl-1,2,3,6-tetrahydropyridin-4-yl)phenyl)pyridin-3-yl)-3,4-dihydroisoquinolin-1(2H)-one] | > 1000 | 11 to 100 |

— patent publication US20240343704A1, “HALO-SUBSTITUTED AMINO PYRIDINE COMPOUNDS AS INHIBITORS OF THE HAEMATOPOIETIC PROGENITOR KINASE 1 (HPK1)” (priority 2021, published 2024)
